Assay results published in patent publication US4154852A, “Novel aminobenzocycloheptenes” (Roussel Uclaf, priority 1976, dated 1979).

How the values were obtained:
[1] = test system: uptake of 14C-5HT; assay: Inhibition of serotonine uptake in vivo (synaptosomes prepared after administration to rats); parameters: key: the activity was expressed in increasing number of + signs; ++: the activity was expressed in increasing number of + signs; +++: the activity was expressed in increasing number of + signs; settings: 5 to 20 mg/kg i.p., female rats 19 to 21 days old, brain removed after 30 minutes
Protocol: (§1) The inhibition of serotonine (5HT) uptake was measured in impure synaptosomes prepared from the entire brain of a female rat 19 to 21 days old using the technique of Kannengiesser et al. [Biochemical Pharmacology,Vol. 22, (1973) p. 73]. Diverse concentrations of the products were placed in an incubator with the preparation at 37° C. for 5 minutes in the presence of 14 C-5HT at a concentration of 10^-7 M. The 50% inhibiting concentration (IC50), dose which inhibits by 50% the uptake of 14C-5HT in the synaptosomes was determined graphically and the IC50 dose for the compounds is reported in Table V.
The tested products were intraperitoneally administered to groups of female rats 19 to 21 days old at doses of 5 to 20 mg/kg. After 30 minutes, the brain was removed and synaptosomes were prepared and placed in an incubator in the presence of 14 C-5HT as indicated in the previous test.

[2] = Acute toxicity in mice; settings: mouse, in vivo, ip, intraperitoneal, determined 48 hours later, read-out: DL50 (dose which kills 50% of mice)
Protocol: The DL50 dose which kills 50% of mice after intraperitoneal administration of the tested compound was determined 48 hours later and the DL50 for the compounds is reported in Table IV.

[3] = test system: effects of nialamide (monoamine oxidase inhibitor); assay: Potentialization of effects of monoamine oxidase inhibitor (nialamide) in mice, actimetric measurement; format: in vivo; settings: nialamide 100 mg/kg i.p. 30 minutes before, 6 hours
Protocol: The administration of a monoamine oxidase inhibitor to mice induces a hyperactive movement of the animals which is able to be potentialized by an antidepressant. Using the procedure of Carlsson et al [Brain Research, Vol. 12 (1969), p. 456], a dose of 100 mg/kg of nialamide was intraperitoneally administered to mice 30 minutes before the intraperitoneal administration of the tested product and the values of actimetric measurements were recorded every 30 minutes for 6 hours. Potentialization of the effects of nialamide for the tested product was expressed in increasing number of + signs for a determined dose in mg/kg.

[4] = test system: serotonine (5HT) uptake; assay: Inhibition of serotonine uptake in vitro (14C-5HT, impure brain synaptosomes); format: biochemical, female rat; settings: rat brain synaptosomes, 37° C., 5 minutes, 14 C-5HT 10^-7 M; read-out: Test in vitro I.C. 50 (inhibition of 14C-5HT uptake)
Protocol: as §1

[5] = test system: effects of L-dopa; assay: Potentialization of effects of L-dopa in iproniazide-pretreated mice; format: in vivo; settings: Mus musculus, ip; i.p. one hour before L-dopa 100 mg/kg i.p.; iproniazide 75 mg/kg i.p. 18 hours before; male mice; read-out: ED50 (dose which potentializes by 50% the L-dopa effects)
Protocol: The administration of L-dopa to mice pretreated 18 hours previously with iproniazide produced certain number of symptoms; muscular hypertonicity, hyperactivity, agitation, crying, aggressiveness, salivation and exophthalmy. The intensity of these effects is potentialized by administration of an antidepressant one hour before the administration of L-dopa. Male mice received intraperitoneally 75 mg/kg of iproniazide 18 hours before the start of the test and the tested product was intraperitoneally administered in aqueous solution in increasing doses. One hour later, L-dopa was intraperitoneally administered at a dose of 100 mg/kg and the different symptoms were observed 15 and 30 minutes later. They were evaluated on a scale of 0 to 3 for each animal and the totals for each dose were determined.

[6] = test system: 5-hydroxytryptophane (5 HTP) effects; assay: Potentialization of 5 HTP effects (trembling) in mice; format: in vivo; settings: Mus musculus, i.p. one hour before 200 mg/kg 5-HTP i.p., observed every 15 minutes for one hour, read-out: MAD (minimum active dose), potentialization of 5 HTP effects
Protocol: The administration of 5-hydroxytryptophane (5 HTP) to mice pretreated with an antidepressant induces in the mice a particular behaviour namely the appearance of trembling.
The test product was intraperitoneally administered in increasing doses one hour before the intraperitoneal administration of 200 mg/kg of 5-HTP and the symptoms were observed were noted every 15 minutes for one hour to determine the minimum active dose (MAD) of the test product.

For `CNC1C=Cc2cc([N+](=O)[O-])ccc2CC1.Cl` (stereo not shown) [Example 1, 2-nitro-7-methylamino-6,7-dihydro [5H] benzocycloheptene hydrochloride], the “In vivo Test (relative power to inhibit the uptake of 14C-5HT)” value [1] was “+++”, the LD50 at 48 h [2] was 75 mg/kg and the “Potentialization of Nialamide” value ([3]; tested product 5 mg/kg i.p.) was “+”. The “Potentialization of Nialamide” value ([3]; tested product 20 mg/kg i.p.) was “++”, the IC50 [4] was 0.32 µM and the ED50 [5] was 1 mg/kg. The minimal effective dose [6] was 10 mg/kg.

In the case of `CNC1C=Cc2cc(N)ccc2CC1.O=C(O)/C=C/C(=O)O` (stereo not shown) [Example 2, 2-amino-7-methylamino-6,7-dihydro [5H] benzocycloheptene fumarate], the “In vivo Test (relative power to inhibit the uptake of 14C-5HT)” value [1] is reported as “+”, the LD50 at 48 h [2] is reported as 75 mg/kg and the “Potentialization of Nialamide” value ([3]; tested product 5 mg/kg i.p.) is reported as “+”. For the same compound, the “Potentialization of Nialamide” value ([3]; tested product 20 mg/kg i.p.) was “++”, the IC50 [4] was 4 µM and the ED50 [5] was 10 mg/kg. For the same compound, the minimal effective dose [6] was 5 mg/kg.

For `CNC1C=Cc2cc(OC)ccc2CC1.Cl` (stereo not shown) [Example 3, 2-methoxy-7-methylamino-6,7-dihydro [5H] benzocycloheptene hydrochloride], the “In vivo Test (relative power to inhibit the uptake of 14C-5HT)” value [1] was “++”, the LD50 at 48 h [2] was 50 mg/kg and the “Potentialization of Nialamide” value ([3]; tested product 1 mg/kg i.p.) was “+”. The “Potentialization of Nialamide” value ([3]; tested product 5 mg/kg i.p.) was “++”, the IC50 [4] was 0.27 µM and the ED50 [5] was 5 mg/kg.

Compound `CNC1C=Cc2cc(O)ccc2CC1.Cl` (stereo not shown) [Example 4, 7-methylamino-6,7-dihydro [5H] benzocycloheptene-2-ol hydrochloride] has an LD50 at 48 h [2] of 50 mg/kg and an IC50 [4] of 0.38 µM.
